Experiment [1] concerns the target recombinant human DPPI (Cathepsin C) (Homo sapiens (Human), UniProt P53634). Briefly: Inhibition of human DPPI (Cathepsin C). Format: biochemical. The conditions noted are these: substrate Gly-Arg-AMC. In a few lines: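 Fluorescence read after 30 min room-temperature turnover of 50 μM (final) substrate by recombinant human cathepsin C, pH 6.0 MES/NaCl/DTT/BSA buffer, quenched by Gly-Phe-DMK (1 μM final). Activity as percent of vehicle after background subtraction, used for IC50.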

Experiment [2] has as its target recombinant human Cathepsin K (Homo sapiens (Human), UniProt P43235). Briefly: Inhibition of human Cathepsin K. It counts as biochemical. The conditions noted are these: substrate Z-Gly-Pro-Arg-AMC. From the text:
Inhibition of Human Cathepsin K
Materials: Microtiterplates (Optiplate-384 F were purchased from PerkinElmer (Prod. No. 6007270). The substrate Z-Gly-Pro-Arg-AMC was from Biomol (Prod.-No. P-142). L-Cysteine (Prod. No. 168149) was from Sigma. Sodium acetate was from Merck (Prod.-No. 6268.0250), EDTA was from Fluka (Prod.-No. 03680). The inhibitor E-64 was purchased from Sigma (Prod.-No. E3132). The recombinant human Cathepsin K proenzyme was purchased from Biomol (Prod. No. SE-367). All other materials were of highest grade commercially available.
The following buffers were used: Activation buffer: 32.5 mM sodium acetate, adjusted to pH 3.5 with HCl; Assay buffer: 150 mM sodium acetate, 4 mM EDTA, 20 mM L-Cysteine, adjusted to pH 5.5 with HCl,
To activate the proenzyme, 5 μl procathepsin K were mixed with 1 ul activation buffer, and incubated at room temperature for 30 min.
5 μL test compound (final concentration 0.1 nM to 100 μM) in aqua bidest (containing 4% DMSO, final DMSO concentration 1%) were mixed with 10 uL of Cathepsin K in assay buffer (final concentration 2 ng/μL) and incubated for 10 min. […] The plates were then incubated at room temperature for 60 min. Then, the reaction was stopped by adding 10 μL of E64 in assay buffer (final concentration 1 μM). The fluorescence in the wells was determined using a Molecular Devices SpectraMax M5 Fluorescence Reader (Ex 360 nm, Em 460 nm).
Each assay microtiter plate contains wells with vehicle controls (1% DMSO in bidest) as reference for non-inhibited enzyme activity (100% Ctl; high values) and wells with inhibitor (E64 in bidest+1% DMSO, final concentration […]) as controls for background fluorescence (0% Ctl; low values). The analysis of the data was performed by calculating the percentage of fluorescence in the presence of test compound in comparison to the fluorescence of the vehicle control after subtracting the background fluorescence: (RFU(sample)−RFU(background))*100/(RFU(control)−RFU(background))
Data from these calculations were used to generate IC50 values for inhibition of Cathepsin K, respectively.

Chain of recombinant human Cathepsin K (P43235 115-329): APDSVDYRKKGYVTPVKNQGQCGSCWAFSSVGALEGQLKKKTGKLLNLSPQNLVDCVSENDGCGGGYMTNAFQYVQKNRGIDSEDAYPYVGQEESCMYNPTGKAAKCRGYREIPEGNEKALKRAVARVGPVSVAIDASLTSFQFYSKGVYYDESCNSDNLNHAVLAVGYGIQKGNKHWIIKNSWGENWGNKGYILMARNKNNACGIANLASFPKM
Chain of recombinant human DPPI (Cathepsin C) (P53634 231-394): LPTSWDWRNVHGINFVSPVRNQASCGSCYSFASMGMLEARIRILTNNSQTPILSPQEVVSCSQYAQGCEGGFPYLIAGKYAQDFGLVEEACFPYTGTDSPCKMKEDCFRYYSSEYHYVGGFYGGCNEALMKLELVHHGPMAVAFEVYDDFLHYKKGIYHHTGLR
Chain of recombinant human DPPI (Cathepsin C) (P53634 395-463): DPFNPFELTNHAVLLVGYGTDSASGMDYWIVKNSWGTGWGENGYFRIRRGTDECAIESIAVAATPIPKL
Chain of recombinant human DPPI (Cathepsin C) (P53634 25-134): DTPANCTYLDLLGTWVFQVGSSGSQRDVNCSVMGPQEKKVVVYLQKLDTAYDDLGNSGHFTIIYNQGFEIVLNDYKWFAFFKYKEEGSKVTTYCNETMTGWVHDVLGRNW

A word on the IC50: it is the concentration that inhibits the measured activity by half. In the case of `N#C[C@H](Cc1ccc(-c2csc(C(=O)N3CCN4CCOCC4C3)c2)cc1F)NC(=O)[C@H]1N[C@@H]2CC[C@H]1C2` (stereo partly shown) [Example 234], the IC50 turned out to be 3.8 nM in experiment [1] and 2900 nM in experiment [2].
Regarding `COC(=O)c1cc(-c2ccc(C[C@@H](C#N)NC(=O)[C@H]3N[C@H]4C[C@@H]3[C@@H]3C[C@@H]34)c(F)c2)cs1` [Example 133], the IC50 stood at 16.1 nM in experiment [1] and 19400 nM in experiment [2].
With `CS(=O)(=O)c1cccc(-c2ccc(C[C@@H](C#N)NC(=O)[C@H]3N[C@H]4C[C@@H]3[C@@H]3C[C@@H]34)c(F)c2)c1` [Example 144], the IC50 in experiment [1] worked out at 26.3 nM; in experiment [2], 11100 nM.
For `N#C[C@H](Cc1ccc(-c2cnn(C(=O)C3CCOCC3)c2)cc1F)NC(=O)[C@H]1N[C@@H]2CC[C@H]1C2` [Example 74], the IC50 amounted to 11.4 nM in experiment [1] and 2500 nM in experiment [2].
The matching figures for `N#C[C@H](Cc1ccc(-c2cccs2)cc1F)NC(=O)[C@H]1N[C@@H]2CC[C@H]1C2` [Example 36]: 4.7 nM and 3000 nM.
Regarding `N#C[C@H](Cc1ccc(-c2cccc(S(N)(=O)=O)c2)cc1F)NC(=O)[C@H]1N[C@@H]2CC[C@H]1C2` [Example 37], the values for the concentration for half-maximal inhibition (IC50) in experiment [1] and in experiment [2] were 4.7 nM and 5100 nM, respectively.
The matching figures for `N#C[C@H](Cc1ccc(N2CCN(c3ccccc3)CC2)cc1F)NC(=O)[C@H]1N[C@@H]2CC[C@H]1C2` [Example 32, (1S,2S,4R)—N-[(1S)-1-cyano-2-[2-fluoro-4-(4-phenylpiperazin-1-yl)phenyl]ethyl]-3-azabicyclo[2.2.1]heptane-2-carboxamide]: 4.5 nM and 3900 nM.
The matching figures for `N#C[C@H](Cc1ccc(-c2ccc3c(c2)CC(=O)N3)cc1F)NC(=O)[C@H]1N[C@H]2C[C@@H]1[C@@H]1C[C@@H]12` [Example 134]: 17.8 nM and 6700 nM.
The matching figures for `Cn1ncc2ccc(-c3ccc(C[C@@H](C#N)NC(=O)[C@H]4N[C@H]5C[C@@H]4[C@@H]4C[C@@H]45)c(F)c3)cc21` [Example 70]: 10.2 nM and 12000 nM.
For `CS(=O)(=O)Nc1ccc(-c2ccc(C[C@@H](C#N)NC(=O)[C@H]3N[C@H]4C[C@@H]3[C@@H]3C[C@@H]34)c(F)c2)cc1` [Example 140], the half-maximal inhibitory concentration (IC50) amounted to 21.5 nM in experiment [1] and 8400 nM in experiment [2].
The matching figures for `Cn1cc(-c2ccc(C[C@@H](C#N)NC(=O)[C@H]3N[C@@H]4CC[C@H]3C4)c(F)c2)c(C(F)(F)F)n1` [Example 118]: 44.3 nM and 3900 nM.
For `CC(=O)NCCn1cc(-c2ccc(C[C@@H](C#N)NC(=O)[C@H]3N[C@@H]4CC[C@H]3C4)c(F)c2)cn1` [Example 38], the 50% inhibitory concentration (IC50) came to 4.8 nM in experiment [1] and 2900 nM in experiment [2].
Turning to `N#C[C@H](Cc1ccc(-n2cc(-c3ccc4occc4c3)nn2)cc1F)NC(=O)[C@H]1N[C@@H]2CC[C@H]1C2` [Example 84], the IC50 in experiment [1] came to 13.7 nM; in experiment [2], 4900 nM.
Consider `COC(=O)Cn1cc(-c2ccc(C[C@@H](C#N)NC(=O)[C@H]3N[C@@H]4CC[C@H]3C4)c(F)c2)cn1` [Example 13], for which the values for the IC50 in experiment [1] and in experiment [2] were 1.9 nM and 3400 nM, respectively.
The matching figures for `Cc1occc1-c1ccc(CC(C#N)NC(=O)[C@H]2N[C@@H]3CC[C@H]2C3)c(F)c1` (stereo partly shown) [Example 92]: 17.7 nM and 8200 nM.
The matching figures for `CN1C(=O)Cc2ccc(-c3cc(F)c(CC(C#N)NC(=O)[C@H]4N[C@@H]5CC[C@H]4C5)c(F)c3)cc21` (stereo partly shown) [Example 61]: 8.7 nM and 10900 nM.
In the case of `Cc1ccc(-c2ccc(C[C@@H](C#N)NC(=O)[C@H]3N[C@@H]4CC[C@H]3C4)c(F)c2)o1` [Example 27], the IC50 in experiment [1] was 4 nM; in experiment [2], 3200 nM.
Turning to `N#C[C@H](Cc1ccc(-c2cn[nH]c2)cc1F)NC(=O)[C@H]1N[C@@H]2CC[C@H]1C2` [Example 69], the IC50 in experiment [1] was 9.9 nM; in experiment [2], 2400 nM.
As to `N#C[C@H](Cc1ccc(-c2ccc3c(c2)C(=O)OC3)cc1F)NC(=O)[C@H]1N[C@@H]2CC[C@H]1C2` [Example 34], the IC50 in experiment [1] stood at 4.6 nM; in experiment [2], 2500 nM.
As to `N#CC(Cc1ccc(-c2ccc3c(c2)COC3=O)cc1F)NC(=O)[C@H]1N[C@@H]2CC[C@H]1C2` (stereo partly shown) [Example 11], the IC50 in experiment [1] is 1.7 nM; in experiment [2] it was 2600 nM.
The matching figures for `Cc1n[nH]cc1-c1ccc(CC(C#N)NC(=O)[C@H]2N[C@@H]3CC[C@H]2C3)c(F)c1` (stereo partly shown) [Example 104]: 24.9 nM and 10300 nM.
Regarding `N#CC(Cc1ccc(-c2ccc3c(c2)CCNC3=O)cc1F)NC(=O)[C@H]1N[C@H]2C[C@@H]1[C@@H]1C[C@@H]12` (stereo partly shown) [Example 148], the IC50 stood at 30.4 nM in experiment [1] and 14600 nM in experiment [2].
The matching figures for `Cn1c(=O)c2cc(C[C@@H](C#N)NC(=O)[C@H]3N[C@@H]4CC[C@H]3C4)c(F)cc2c2ccccc21` [Example 326]: 1.9 nM and 1100 nM.
Consider `CNC(=O)c1ccc(-c2ccc(C[C@@H](C#N)NC(=O)[C@H]3N[C@@H]4CC[C@H]3C4)c(F)c2)cc1` [Example 186], for which the IC50 in experiment [1] was found to be 9.6 nM; in experiment [2], 3500 nM.
The matching figures for `COc1ncc(-c2cn(-c3ccc(C[C@@H](C#N)NC(=O)[C@H]4N[C@@H]5CC[C@H]4C5)c(F)c3)nn2)cn1` [Example 66]: 9.4 nM and 4800 nM.
The matching figures for `N#C[C@H](Cc1ccc(-c2ccc(Cl)nc2)cc1F)NC(=O)[C@H]1N[C@H]2C[C@@H]1[C@@H]1C[C@@H]12` [Example 145]: 53.8 nM and 7400 nM.
For `Cc1ncc(-c2ccc(C[C@@H](C#N)NC(=O)[C@H]3N[C@H]4C[C@@H]3[C@@H]3C[C@@H]34)c(F)c2)s1` [Example 93], the half-maximal inhibitory concentration (IC50) in experiment [1] worked out at 18.3 nM; in experiment [2], 6900 nM.
The matching figures for `CC(C)CC(=O)n1cc(-c2ccc(C[C@@H](C#N)NC(=O)[C@H]3N[C@@H]4CC[C@H]3C4)c(F)c2)cn1` [Example 48]: 7.2 nM and 3300 nM.
Consider `CNC(=O)c1cc(-c2ccc(C[C@@H](C#N)NC(=O)[C@H]3N[C@@H]4CC[C@H]3C4)c(F)c2)cs1` [Example 161], for which the IC50 in experiment [1] came to 1.9 nM; in experiment [2] it was 10700 nM.
The matching figures for `Cn1c(=O)oc2cc(-c3ccc(CC(C#N)NC(=O)[C@H]4N[C@@H]5CC[C@H]4C5)c(F)c3)ccc21` (stereo partly shown) [Example 107]: 25.9 nM and 4700 nM.
As for `COc1ccccc1-c1cn(-c2ccc(C[C@@H](C#N)NC(=O)[C@H]3N[C@@H]4CC[C@H]3C4)c(F)c2)nn1` [Example 119], the half-inhibitory concentration (IC50) in experiment [1] was 51.2 nM; in experiment [2], 4500 nM.
The matching figures for `N#CC(Cc1ccc(-c2ccc3c(c2)CC(=O)N3)cc1F)NC(=O)[C@H]1N[C@@H]2CC[C@H]1C2` (stereo partly shown) [Example 79]: 12 nM and 3500 nM.
On to `Cc1noc(C)c1-c1ccc(C[C@@H](C#N)NC(=O)[C@H]2N[C@@H]3CC[C@H]2C3)c(F)c1` [Example 121], for which the 50% inhibitory concentration (IC50) in experiment [1] worked out at 156 nM; in experiment [2], 5200 nM.
Take `CC(C)Cn1cc(-c2ccc(C[C@@H](C#N)NC(=O)[C@H]3N[C@@H]4CC[C@H]3C4)c(F)c2)cn1` [Example 64]: the figures for the IC50 in experiment [1] and in experiment [2] were 9.3 nM and 4200 nM, respectively.
Regarding `N#CC(Cc1ccc(-c2ccoc2)cc1F)NC(=O)[C@H]1N[C@@H]2CC[C@H]1C2` (stereo partly shown) [Example 103], the figures for the half-inhibitory concentration (IC50) in experiment [1] and in experiment [2] were 24.9 nM and 5900 nM, respectively.

These data come from patent publication US8987249B2, “Substituted 2-Aza-bicyclo[2.2.1]heptane-3-carboxylic acid (benzyl-cyano-methyl)-amides inhibitors of Cathepsin C” (Boehringer Ingelheim International GmbH, priority 2013, dated 2015).
